From patent US6383733B1, “Methods of screening for pharmacologically active compounds for the treatment of tumour diseases” (Boehringer Ingelheim International GmbH, priority 1996, dated 2002)

How the values were obtained:
[1] = system: EpRas cells; test: EF conversion of EpRas cells in collagen type I gels; type: cell-based, mouse
Experimental: (§1) Semiconfluent cultures of the cells to be analysed were trypsinised and adjusted to a final concentration of 4×10^4 cells per ml with ice-cold growth medium. Equal volumes of the cell suspension and an acidified solution of rat's tail collagen type 1 (Sigma) were mixed at 4° C., applied to 35 mm tissue culture dishes and incubated for 30 min at 37° C., in order to allow the solution to set to a gel. To allow the cells to form organotypical structures, the collagen gels were covered with a serum-free medium (MEGM; Promocel) containing bovine pituary extract (BPE), recombinant epidermal growth factor (EGF), hydrocortisone and insulin (in the concentrations recommended by the manufacturer). Where stated, 5 or 10% FCS or 5 ng/ml recombinant TGFβ1 (literature) were added. The medium covering the collagen gels was changed every two days. In order to neutralise the TGFβ1 produced by the cells or cell structures in the collagen gels a monoclonal antibody against TGFβ1 (Genzyme) or control antibody is used in concentrations of up to 50 μg/ml.
In order to identify the mechanism underlying the EF conversion, an experimental system was used with which EF conversion can be induced in vitro under defined and physiologically relevant conditions. For this purpose normal EpH4 cells or Ras-transformed subclones of these cells (Ep-Ras clones) were grown in reconstituted collagen type I gels, using serum-free medium. These conditions made it possible to add defined polypeptide growth factors and hormones which are known to be involved in the modulation of the epithelial phenotype. In gels of this kind, normal EpH4 cells developed into organ-like gland channels (tubuli) which frequently terminated in club-shaped hollow swellings. These structures looked very similar to the end buds of the developing mammary gland which are formed by primary breast epithelial cells both in collagen gels and also in vivo (FIG. 3A). These structures could be induced to produce milk proteins efficiently by the addition of lactogenic hormones. […]

[2] = system: EpH4 cells; test: In vitro morphogenesis and apoptosis of normal EpH4 cells in collagen gels; type: cell-based, mouse
Experimental: as §1
Since the TGFβ-super-family of polypeptide factors is involved primarily in morphogenetic processes during embryo development, the role of TGFβ1 in normal mammary gland development was also examined within the scope of the present invention. For this purpose normal breast epithelial cells of the cell line EpH4 were sown in serum-free collagen gels. Unlike in the experiments in Example 3, the serum needed during sowing for the collagen gel to set and washed out one day later was specially selected for a low content of TGFβ1. […] Thus, these structures bore some resemblance to the end buds of the developing mammary gland.

[3] = system: EpRas cells; test: Chicken embryo heart invasion assay with EpRas cells; type: cell-based, mouse; conditions: 7 days co-cultivation with heart fragments
Experimental: This assay was carried out as described by Behrens et al., 1993. In order to be able to distinguish invasive donor cells clearly from chicken heart cells, the test cells were charged with a vital fluorescent dye before examination. For this the cells were incubated for 1 hour in a glucose-containing Hanks saline solution containing […] 5,6-carboxy-2′,7′-dichlorofluorescein diacetate-succinimidyl ester (Molecular Probes) and 0.2×10^−6 M Pluronic F127. In this way the fluorescent dye is covalently bound to intracellular proteins without affecting the viability or behaviour of the cells, determined by various differentiation and proliferation assays. The labelled cells were grown for 24 hours at high density, scraped off the plastic dish and brought into contact with pre-cultivated heart fragments of 9 day old chicken embryos on the surface of a soft agar layer. After 7 days' cultivation the fragments with the adhering cells were collected, flash-frozen in liquid nitrogen, frozen sections were prepared, fixed in methanol/acetone and the fluorescent cells were determined by epifluorescence microscopy (Axiophot, Zeiss).

[4] = system: EpRas cells; test: Semi-quantitative PCR for TGFβ1-mRNA in cells grown in collagen gels; type: cell-based, mouse; conditions: EpRas clones, 5 ng/ml TGFβ1, five days in collagen gels
Experimental: Total RNA from cells, grown on plastic, in collagen gels or from tumours, was isolated and processed for the semi-quantitative PCR. A TGFβ1-specific fragment was amplified by means of RT-PCR under semi-quantitative conditions, using -actin primers as the internal control, as described by Leonard et al., 1993. For this the DNA was denatured at 94° C. for 1 min, the primers were annealed at 65° C. for 1 min, and the polymerase reactions were continued at 72° C. for 1 min. The amplification was continued for 20 and 30 cycles. The TGFβ1-specific primers TGGACCGCAA CAACGCCATC TATCCAGAAAA CC (forward) and TGGAGCTGAAGCAATAGTTGGTATCCAGGGCT (reverse) (Clontech Inc.) were used. The results of the PCR were quantitatively evaluated on an Image Quant Phospho-Imager. The values were standardised on the control product (-actin) and subsequently correlated with the value from control-3T3-fibroblast.
Finally the amounts of TGFβ1-mRNA expressed in the cells and the TGFβ1 -protein released into the culture medium were determined. Three different EpRas clones as well as the parental EpH4 clone were grown for five days in collagen gels. […] At the protein level essentially the same results were obtained when serum-free culture supernatants were analysed by ELISA and Western blot (FIG. 7B).

[5] = system: EpRas cells; test: TGFβ1-charged Slow Release Pellets coinjected with EpRas cells in mice; type: in vivo, mouse; conditions: 4 days after subcutaneous injection
Experimental: (§2) In order to expose Ras-transformed breast epithelial cells to activated TGFβ1 very early in tumour development, TGFβ1 -charged Slow Release Elvax Pellets and either EpRas-epithelial cells or normal EpH4H cells were coinjected subcutaneously in mice. For control purposes pellets, charged only with BSA, were coinjected. The pellets were prepared and charged according to the manufacturer's instructions.
FIGS. 8E, F: Epithelial EpRas cells were injected subcutaneously into nude mice without (E) or together with 3-Elvax Slow Release Pellets charged with recombinant (active) TGFβ1 (F). Frozen sections obtained from 4 day old tumours were double-stained with antibodies against cytokeratin (red) and vimentin (green). What is noticeable is the dramatic migration of cells into the surrounding tissue induced in the vicinity of the TGFβ1 -releasing pellets (white circle).

[6] = system: EpH4 cells; test: TGFβ1-charged Slow Release Pellets coinjected with EpH4 cells in mice; conditions: mouse, in vivo
Experimental: as §2

[7] = system: PAI-1 promoter-reporter gene construct in CT26 cells; test: Transient PAI-1 promoter-reporter gene (3TP-lux) luciferase assay; type: cell-based, mouse; conditions: TGFβ added for 24 hours
Experimental: A PAI-1 promoter-reporter construct (reporter gene was luciferase; 3TP-lux, Wrana et al., 1992) was transfected by lipofectamine transfection (Gibco) according to the manufacturer's instructions into CT26 cells or CT26-TβRII-dn cells. 8 hours after transfection TGFβ1 was added for 24 hours, while the controls were left without TGFβ. Then cell lysates were prepared and the luciferase activity was measured in a Berthold Clinilumat as described by Wrana et al., 1992. In order to determine the transfection efficiency all the cells were cotransfected with an CMV-β-Gal reporter gene construct and the luciferase activities obtained were standardised by the β-Gal fluorescence intensity and by the protein concentration of the extract (Bradford).
CT26-control cells (CT26 controls) and 5 clones of CT26−TβRII-dn cells (CT26TβRII-dn 1-5) were transfected with a PAI-1 promoter-reporter gene construct (3TP-lux), the cells were stimulated with TGFβ (+TGFβ) or left unstimulated (−TGFβ) and the luciferase activity was measured in cell extracts. […]

## TGFβ1: Transforming Growth Factor β1, recombinant polypeptide factor added to cells or charged in Slow Release Elvax Pellets
[1]; TGFβ1 5 ng/ml
  apoptosis / EFC of Ha-Ras-containing cells: not induced into apoptosis and undergo EFC without exception
[1]; TGFβ1 on its own, 5 ng/ml, serum-free collagen gel
  growth and phenotype of EpRas cells in collagen gel: causes EpRas cells to grow into invasive strings of cells similar to those induced by FCS
[1]; compared with heregulin, scatter factor/HGF, acidic and basic FGF, PDGF
  effect among growth factors added to EpRas cells in collagen gels: the only factor which showed striking and long-lasting effects on EpRas cells
[2]; EpH4 cells in collagen gels
  TGFβ1 concentration causing growth stop and apoptosis of normal epithelial cells: > 0.25 ng/mL
[2]; TGFβ1 0.1 ng/ml until structures had formed, then washed out
  structures formed by EpH4 cells after transient TGFβ1: formed well-shaped tubular structures with typical lumina
[2]; TGFβ1 0.1 ng/ml, serum selected for low TGFβ1 content
  structures formed by EpH4 cells: able to proliferate and form atypical structures which generally lacked lumina
[2]; collagen gels
  induction of EF conversion in non-tumorigenic control cells: not able to induce EF conversion
[3]
  invasivity of EpRas cells converted by TGFβ1 treatment: capable of migrating efficiently into the heart fragments
[4]
  TGFβ1-mRNA produced by fibroblastoid cells induced by TGFβ1: produced quantities of TGFβ1-mRNA which were comparable with those of control fibroblasts
[5]
  phenotype and migration of EpRas cells close to a TGFβ1 pellet: converted into irregularly shaped cells just 4 days after the injection and exhibited extensive migration into the surrounding host tissue
[6]
  phenotype of EpH4 cells close to TGFβ1 pellets: could not noticeably influence the phenotype of these non-tumorigenic cells
[7]
  reporter gene transcription in CT26 control cells: activates the reporter gene transcription to levels which are attained in the positive controls
